Laboratory results published in patent publication US20210154190A1, “SHP2 INHIBITOR COMPOSITIONS AND METHODS FOR TREATING CANCER” (Revolution Medicines, Inc., priority 2018, published 2021).
Residue numbers refer to the chain shown, from its start. “And” between values parts separate entries of the source, which are not always exact repeats. Equal values may be shown once. Read-outs that look alike come from different tables or passages of the source.

Key:
Type in all cases: biochemical
human SHP2-FL D61G = target: T1, human SHP2-FL D61G (Homo sapiens, UniProt Q06124, D61G); test: SHP2 allosteric inhibition assay (DiFMUP), D61G; settings: for IC50: SHP2 D61G
T1 sequence (Q06124 1-593 D61G): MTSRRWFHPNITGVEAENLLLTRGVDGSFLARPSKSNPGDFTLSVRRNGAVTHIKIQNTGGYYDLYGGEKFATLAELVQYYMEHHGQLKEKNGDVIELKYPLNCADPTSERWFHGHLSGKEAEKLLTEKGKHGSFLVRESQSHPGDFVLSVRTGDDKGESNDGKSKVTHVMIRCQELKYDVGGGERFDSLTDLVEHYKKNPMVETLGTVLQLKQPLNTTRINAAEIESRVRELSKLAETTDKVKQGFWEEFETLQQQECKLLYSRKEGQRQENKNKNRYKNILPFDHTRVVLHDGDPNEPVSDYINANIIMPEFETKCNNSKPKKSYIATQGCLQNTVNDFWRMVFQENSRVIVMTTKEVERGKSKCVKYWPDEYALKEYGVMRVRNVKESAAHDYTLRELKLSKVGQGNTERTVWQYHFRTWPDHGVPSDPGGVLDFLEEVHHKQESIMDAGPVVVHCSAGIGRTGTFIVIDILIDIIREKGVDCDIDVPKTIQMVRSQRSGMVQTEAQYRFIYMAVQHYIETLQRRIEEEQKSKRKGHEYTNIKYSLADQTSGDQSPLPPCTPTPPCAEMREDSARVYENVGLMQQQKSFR
Method: (§1) Full-length SHP2 is allosterically activated through binding of bis-tyrosyl-phorphorylated peptides to its Src Homology 2 (SH2) domains. The latter activation step leads to the release of the auto-inhibitory interface of SHP2, which in turn renders the SHP2 protein tyrosine phosphatase (PTP) active and available for substrate recognition and reaction catalysis. The catalytic activity of SHP2 was monitored using the surrogate substrate DiFMUP in a prompt fluorescence assay format.
(§2) […] […] 50 μl stop solution (0.1 mM sodium pervanadate) was added to each well, the plate was shaken briefly to mix, and read in endpoint mode on a SpectraMax M5 plate reader (Molecular Devices) using excitation and emission wavelengths of 340 nm and 450 nm. Data was imported into GraphPad Prism. Plots of fluorescence intensity vs. log Molar [compound] were created and modeled with a 3-parameter sigmoidal concentration response equation in order to estimate IC50.
(§3) Reactions were then allowed to proceed for 30 minutes and stopped by the addition of a phosphatase inhibitor, sodium pervanadate. De-phosphorylation of DiFMUP results in production of a fluorescent product. Product fluorescence was determined and plotted as a function of compound concentration in order to determine the IC50 for each compound on each mutant using a four parameter sigmoidal dose response function in Prism (GraphPad).
(§4) NsCs mimics the role of the cytosolic domain of a protein tyrosine kinase in this model system.

human SHP2-FL P491S = target: T2, human SHP2-FL P491S (Homo sapiens, UniProt Q06124, P491S); test: SHP2 allosteric inhibition assay (DiFMUP), P491S
T2 sequence (Q06124 1-593 P491S): T1 sequence (Q06124 1-593 D61G) with G61D, P491S
Method: as §1, §2, §3, §4

human SHP2-FL S189A = target: T3, human SHP2-FL S189A (Homo sapiens, UniProt Q06124, S189A); test: SHP2 allosteric inhibition assay (DiFMUP), S189A
T3 sequence (Q06124 1-593 S189A): T1 sequence (Q06124 1-593 D61G) with G61D, S189A
Method: as §1, §2, §3, §4

`Nc1nc(N2CCC3(CCC[C@H]3N)CC2)cnc1Sc1ccnc(Cl)c1Cl` [Compound 1] was tested, and the IC50 (human SHP2-FL D61G; 0.5 μM NsCs peptide (Activated), read-out: IC50) was 185 nM and 219 nM and 198 nM and 191 nM, the IC50 (human SHP2-FL D61G; 0.5 μM NsCs peptide (Activated), read-out: pIC50 (converted)) was 186 nM and 219 nM and 200 nM and 191 nM and the IC50 (human SHP2-FL D61G; No Peptide Control (Non-Activated), read-out: IC50) was 1.85 nM and 2.45 nM and 1.6 nM and 1.81 nM. For the same compound, the IC50 (human SHP2-FL D61G; No Peptide Control (Non-Activated), read-out: pIC50 (converted)) was 1.86 nM and 2.45 nM and 1.58 nM and 1.82 nM, the IC50 (human SHP2-FL P491S; IC50 (nM), SHP2 P491S 0.5 μM NsCs peptide (Activated), human SHP2-FL P491S, 0.5 μM NsCs peptide (activated)) was > 10000 nM and 10600 nM and 7670 nM and the IC50 (human SHP2-FL P491S; human SHP2-FL P491S alone, no peptide (non-activated), read-out: IC50 (nM), SHP2 P491S No Peptide Control (Non-Activated)) was 258 nM and 274 nM and 253 nM and 282 nM. The IC50 (human SHP2-FL P491S; human SHP2-FL P491S alone, no peptide (non-activated), read-out: pIC50, SHP2 P491S No Peptide Control (Non-Activated) (converted)) was 257 nM and 275 nM and 251 nM and 282 nM, the IC50 (human SHP2-FL P491S; pIC50, SHP2 P491S 0.5 μM NsCs peptide (Activated), human SHP2-FL P491S, 0.5 μM NsCs peptide (activated)) was > 10000 nM and 10700 nM and 7590 nM and the IC50 (human SHP2-FL S189A; IC50 (nM), SHP2 S189A 0.5 μM NsCs peptide (Activated), human SHP2-FL S189A, 0.5 μM NsCs peptide (activated)) was 3.38 nM and 3.76 nM and 2.99 nM and 3.79 nM. The IC50 (human SHP2-FL S189A; human SHP2-FL S189A alone, no peptide (non-activated), read-out: IC50 (nM), SHP2 S189A No Peptide Control (Non-Activated)) was 3.01 nM and 3.35 nM and 2.75 nM and 3.11 nM, the IC50 (human SHP2-FL S189A; human SHP2-FL S189A alone, no peptide (non-activated), read-out: pIC50, SHP2 S189A No Peptide Control (Non-Activated) (converted)) was 3.02 nM and 3.31 nM and 2.75 nM and 3.09 nM and the IC50 (human SHP2-FL S189A; pIC50, SHP2 S189A 0.5 μM NsCs peptide (Activated), human SHP2-FL S189A, 0.5 μM NsCs peptide (activated)) was 3.39 nM and 3.72 nM and 3.02 nM and 3.8 nM.
In the case of `Cc1nc(N2CCC3(CC2)CO[C@@H](C)[C@H]3N)c(CO)nc1-c1cccc(Cl)c1Cl` [Compound B], the Biochemical sensitivity (human SHP2-FL D61G; Variant D61G) is reported as “yes (Sensitive if IC50 < 2000 nM)”, the Biochemical sensitivity (human SHP2-FL P491S; Variant P491S) is reported as “no (Sensitive if IC50 < 2000 nM)” and the Biochemical sensitivity (human SHP2-FL S189A; Variant S189A) is reported as “yes (Sensitive if IC50 < 2000 nM)”.
